In patent publication US20230115208A1, “RING-FUSED THIAZOLINO 2-PYRIDONES, METHODS FOR PREPARATION THEREOF AND THEIR USE IN THE TREATMENT AND/OR PREVENTION OF TUBERCULOSIS” (QURETECH BIO AB, priority 2016, published 2023):

Test system: katGFSAA6 Mtb (INH-resistant, frameshift at amino acid 6 in katG)
Assay type: cell-based, Mycobacterium tuberculosis

Structure (SMILES)	doubling time
O=C(O)[C@@H]1CSc2c(C3CC3)c(Cc3cccc4ccccc34)cc(=O)n21 [Example 1, (3R)-7-Cyclopropyl-6-[(1-naphthyl)methyl]-4-oxo-1-thia-3a-aza-3-indancarboxylic acid]	48 h
NNC(=O)c1ccncc1 [INH, isonicotinylhydrazide, reference compound]	55 h
